Measured values published in patent US8889411B2, “Modulation of stem and progenitor cell differentiation, assays, and uses thereof” (Anthrogenesis Corporation, priority 2002, dated 2014).

Experiments:
[1] = system: Human Cord Blood CD34+ Cells; experiment: FACS analysis of proliferation and differentiation of cord blood CD34+ cells cultured with IL3, G-CSF and Kit-ligand; type: cell-based; settings: for CD11b+ Cell Population / CD34+CD38+ Cell Population / CD34+CD38− Cell Population: 7 days
Method: CB CD34+ cells were initiated at 4×10^4 cells/ml in a 24-well plate in 20% FCS IMDM (fetal calf serum/Iscove's Modified Dulbecco's Medium) supplemented with cytokines (1 L3, GCSF and Kit-ligand) (R&D Systems, Inc.). Thalidomide (Thal), ACTIMID™ or REVIMID™ were included in the culture at three different concentrations: 5 μg/ml, 1 μg/ml and 0.3 μg/ml. The same volumes of DMSO were used as controls. A negative control without, any compound was also used (indicated by “none” in FIGS. 3-7). Cells were cultured at 37° C. and 5% CO2 in a humidified incubator for 7 days. Cells were then harvested from each well.
The total cell number from each well was determined by counting in a CELL-DYN® 1700 (Abbott Diagnostics) and the expression of CXCR4, CD45, CD34, CD38, CD 1 lb and Gly-A expression was analyzed by FACS (fluorescence-activated cell sorting) staining (FIGS. 3-7).
CB cells from two different donors (CB2276 and CB2417) were cultured, assayed and analyzed separately (Table 1).

[2] = system: Purified human cord blood CD34+ cells; experiment: Monocyte production: CD34/CD14 staining of cord blood CD34+ cells cultured 14 days with cytokines; type: cell-based; settings: 14 days
Method: Purified human cord blood CD34+ cells (greater than 90% CD34+) were cultured in 20% FCS IMDM medium supplemented with cytokines (IL3, IL6, G-CSF, KL and Epo) at 4×10^4 cells/ml for 14 days at 37° C. in a humidified 5% CO2 incubator. The experimental groups consisted of a group in which (i) no DMSO or chemical compounds were added (“None”), (ii) DMSO only, (iii) Thalidomide dissolved in DMSO, (iv) ACTIMID™ dissolved in DMSO, and (v) REVIMID™ dissolved in DMSO. Aliquots of cells were harvested and stained with CD34-PE conjugated monoclonal antibody and CD14-FITC conjugated monoclonal antibody.

[3] = system: Bone marrow and cord blood CD34+ progenitor cells; experiment: Differentiation of CD34+ progenitor cells into dendritic cells, cell surface phenotype by flow cytometry; type: cell-based, human; parameters: key to Cell Population CD15+ / Cell Population CD34+ CD38− / Cell Population CD34− CD38+ / Cell Population CD1a+ CD14− / Cell Population CD1a− CD14+: ↑: up arrow indicates an increase in the cell population; ↓: down arrow indicates a decrease; settings: day 6; SCF, Flt-3L, GM-CSF and TNF-α; versus DMSO-treated control
Method: Bone marrow and cord blood CD34^+ progenitor cells were obtained from Clonetics and cultured in Iscove's MDM with BIT 95000 (StemCell Technologies) in the presence of SCF, Flt-3L, GM-CSF and TNF-α for 6 days, and then in the presence of GM-CSF and TNF-α for 6 additional days.
Analysis of cell surface phenotype: Cells were processed for double staining (30 min at 4° C.) at day 6 and day 12 using FITC and PE conjugated mAbs. Antibodies used were from BD Pharmingen: CD34 (PE), CD38 (FITC), CD33 (FITC), CD1a (FITC), CD86 (PE), CD14 (PE), CD83 (PE), CD54 (PE), CD11b (PE), CD11c (PE), HLA-DR (PE), CD15 (FITC), and CD133 (PE) from Miltenyi. Fluorescence analysis was performed on a FACScan flow cytometer after acquisition of 10,000 events (Coulter). Results presented are representative of four independent experiments.
The methodology described above, i.e., the examination of the effect of IMiDs such as ACTIMID™ on the differentiation on early progenitor cells, such as CD34^+ cells, can be applied to any compound of interest, the effect of which on differentiation is desired to be known. As an example of the extension of this assay method to other compounds, we compared the effect of retinoic acid (ATRA) and aspirin to that of ACTIMID™ on the differentiation of CD34^+ cells toward the DC lineage versus the control (DMSO-treated) cells. Retinoic acid was studied because of its known effect on cellular proliferation and differentiation, its therapeutic use in some cancer, and its known teratogenic effect. Conversely, we studied the effect of aspirin because it is a commonly-used anti-inflammatory drug with no immunomodulatory properties. The results at day 6 of CD34^+ progenitors cells cultured in the presence of SCF, Flt-3L, GM-CSF and TNF-α, with or without compound for a period of 6 days, are presented below in Table 2 (up arrow indicates an increase in the cell population; down arrow indicates a decrease).

[4] = system: Murine Sca+Lin− hematopoietic progenitor cells; experiment: Generation of murine dendritic cells from bone marrow Sca+Lin− progenitors, cell surface phenotype; type: cell-based, mouse (C57BL/6)
Text: Mouse bone marrow from inbred C57BL/6 mice was obtained from Clonetics. Hematopoietic Sca+Lin− progenitors were enriched using SpinSep murine progenitor enrichment cocktail (StemCell Technologies) and cultured in Iscove's MDM with BIT 95000 (StemCell Technologies) in the presence of murine growth factors SCF, Flt3L, GM-CSF and M-CSF for 9 days, to promote expansion of Sca+ cells and a DC precursor phenotype and then in the presence of GM-CSF and TNF-α for 3 additional days to drive the cells to an immature DC phenotype. Enriched Sca+Lin− cells were cultured in the presence of DMSO (0.1%), ACTIMID™ at 10 μM or all-trans retinoic acid (ATRA) (ICN Biomedicals) at 10 μM from day 0. Compounds were added to cells at day 0 and day 9.
Analysis of Murine cell surface phenotype: Murine cells were processed for double staining (14 min at RT) at day 9 and day 12; using FITC and PE conjugated mAbs. Antibodies used were from BD Pharmingen: Sea (PE), CD11b (FITC), Gr-1 (FITC), CD86 (PE), CD14 (PE), CD80 (PE), I-A^b (PE), CD40 (PE) and CD32.1/16.1 (FITC) from Miltenyi. Fluorescence analysis was performed on a FACScan flow cytometer (Coulter) after acquisition of 10,000 events.

O=C1CCC(N2C(=O)c3ccccc3C2=O)C(=O)N1 (stereo not drawn) [Thalidomide, reference compound]
expression of CXCR4 ([1]; FACS analysis of surface proteins): not
yield of cells ([1]; IL-3, KL and G-CSF, compared with the DMSO control): slightly higher number of cells
effect on the proliferation of CD34+ cells ([1]; IL-3, KL and G-CSF, compared with the negative control (none)): do not have a significant effect
CD11b+ Cell Population ([1]; donor CB2276, 0.3 μg/ml): 7.6%
CD34+CD38+ Cell Population ([1]; donor CB2276, 0.3 μg/ml): 15.1
CD34+CD38− Cell Population ([1]; donor CB2276, 0.3 μg/ml): 3.2
CD11b+ Cell Population ([1]; donor CB2276, 1 μg/ml): 6.2%
CD34+CD38+ Cell Population ([1]; donor CB2276, 1 μg/ml): 3.8
CD34+CD38− Cell Population ([1]; donor CB2276, 1 μg/ml): 1.0
CD11b+ Cell Population ([1]; donor CB2276, 5 μg/ml): 8.1%
CD34+CD38+ Cell Population ([1]; donor CB2276, 5 μg/ml): 6.5
CD34+CD38− Cell Population ([1]; donor CB2276, 5 μg/ml): 3.5
CD11b+ Cell Population ([1]; donor CB2417, 0.3 μg/ml): 7.8%
CD34+CD38+ Cell Population ([1]; donor CB2417, 0.3 μg/ml): 5.0
CD34+CD38− Cell Population ([1]; donor CB2417, 0.3 μg/ml): 0.8
CD11b+ Cell Population ([1]; donor CB2417, 1 μg/ml): 5.2%
CD34+CD38+ Cell Population ([1]; donor CB2417, 1 μg/ml): 3.8
CD34+CD38− Cell Population ([1]; donor CB2417, 1 μg/ml): 1.0
CD11b+ Cell Population ([1]; donor CB2417, 5 μg/ml): 6.5%
CD34+CD38+ Cell Population ([1]; donor CB2417, 5 μg/ml): 3.0
CD34+CD38− Cell Population ([1]; donor CB2417, 5 μg/ml): 1.1
CD38 status of the majority of CD34+ and CD34− cells ([1]; treated cell populations): mainly CD38+
percentage of CD34+ cells of the total cells ([2]; IL3, IL6, G-CSF, KL and Epo, compound dissolved in DMSO): 0.24%
production of monocytes (CD14+ cells) ([2]; relative to DMSO-treated group): similar

CC1=C(/C=C/C(C)=C/C=C/C(C)=C/C(=O)O)C(C)(C)CCC1 [All-trans RA, all-trans retinoic acid, reference compound]
Cell Population CD1a+ CD14− [3]: ↓
Cell Population CD1a− CD14+ [3]: ↓
Cell Population CD15+ [3]: ↑
Cell Population CD34+ CD38− [3]: ↓
Cell Population CD34− CD38+ [3]: ↑
CD80, I-A^b and Sca+ expression by day 9 ([4]; 10 μM from day 0, data not shown): marked downregulation
expression of CD40 and CD80 ([4]; 10 μM, not shown): marked downregulation

CC(=O)Oc1ccccc1C(=O)O [Aspirin, acetylsalicylic acid, reference compound]
Cell Population CD1a+ CD14− [3]: No change
Cell Population CD1a− CD14+ [3]: No change
Cell Population CD15+ [3]: No change
Cell Population CD34+ CD38− [3]: No change
Cell Population CD34− CD38+ [3]: No change
